Assay results reported in patent US8933229B2, “8-azabicyclo[3.2.1]octane-8-carboxamide derivative” (Sumitomo Dainippon Pharma Co., Ltd., priority 2009, dated 2015).

target: T1, cortisone reductase of human adipose cell (11βHSD1) (Homo sapiens, UniProt P28845); experiment: Inhibitory activity assay against cortisone reductase activity of cultured human adipocytes; assay type: cell-based; details: differentiated normal human preadipocytes (HPrAD-vis), 100 nM [1,2-3H] cortisone, 37° C.
T1 construct: host or cells: normal human visceral preadipocytes (HPrAD-vis) differentiated into adipocytes
Procedure: Normal human preadipocytes (HPrAD-vis, manufactured by Cambrex corporation) were inoculated onto a 48-well cell culture plate, and the differentiation induction was carried out according to Protocol attached to the kit. The medium for the cells on the 9-11 days of the differentiation was changed to D-MEM medium (0.2 ml; manufactured by GIBCO) containing 100 nM [1,2-^3H] cortisone (1 μCi/well, manufactured by Muromachi Yakuhin), 0.5% DMSO, a test compound (for test compound treated group, or DMSO only for the no-test compound treated group). The plate was incubated at 37° C. for 3 hours, and then the whole medium was collected. As a background group, the medium without cell was used. The medium was mixed with ethyl acetate (0.1 ml) in an Eppendorf tube. This mixture was voltexed, and then further centrifuged at 5,000 rpm for one minute at room temperature to separate the ethyl acetate layer (the upper layer). The ethyl acetate layer (10 μl) was spotted on an aluminium plate for thin layer chromatography (silica gel 60 angstrom, Merck & Co., Inc., hereinafter referred to as TLC plate). The developing solvent (chloroform/methanol (90:10, v/v)) was put into a sealed vessel, and the TLC plate was developed, and then dried at room temperature. An imaging plate (TR-2040, Fujifilm) was exposed onto the dried TLC plate for 16 hours or more. After the exposure was completed, the imaging plate was analyzed by Bioimage Analyzer (BAS2500, Fujifilm) and the [^3H] radioactivity on the part corresponding to the position of cortisol developed on the TLC plate. The inhibitory activity of a test compound against cortisone reductase was calculated according to the following equation. (inhibitory activity (%))=100×((group without test compound)−(group with test compound))/((group without test compound)−(background group))
The IC50 value was calculated by linear regression of logarithmic value of the concentration of test compound and the inhibitory activity value, using the data at 2 points showing around 50% of the inhibitory activity. […] The IC50 value of the following compounds of the present invention against cortisone reductase of human adipose cell was determined.

T1 sequence (P28845 whole entry): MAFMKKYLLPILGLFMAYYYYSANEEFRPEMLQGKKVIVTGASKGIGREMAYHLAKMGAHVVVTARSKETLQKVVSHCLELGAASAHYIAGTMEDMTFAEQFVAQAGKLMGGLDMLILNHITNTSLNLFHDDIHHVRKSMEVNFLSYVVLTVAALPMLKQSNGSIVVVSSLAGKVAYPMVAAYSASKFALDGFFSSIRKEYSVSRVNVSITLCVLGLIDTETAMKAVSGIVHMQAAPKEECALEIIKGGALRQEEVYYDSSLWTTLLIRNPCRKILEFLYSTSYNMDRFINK

Compared with `Cc1cnc(C)c(OC2CC3CCC(C2)N3C(=O)NC2C3CC4CC2CC(O)(C4)C3)n1` (centres unmarked) [Example 306], `Cc1cc(OC2CC3CCC(C2)N3C(=O)NC2C3CC4CC2CC(O)(C4)C3)ncc1F` (centres unmarked) [Example 404] is lower in IC50: 6.3 nM for the first, under 3 nM for the second.

Going from `O=C(N[C@H]1C2CC3CC1C[C@](O)(C3)C2)N1[C@@H]2CC[C@H]1CC(COc1ccccc1)C2` (stereo partly drawn) [Example 314, (1R,5S)-N-[(E)-5-Hydroxyadamantan-2-yl]-3-(phenoxymethyl)-8-azabicyclo[3.2.1]octane-8-carboxyamide] to `O=C(N[C@H]1C2CC3CC1C[C@](O)(C3)C2)N1[C@@H]2CC[C@H]1C[C@H](Oc1ccccc1)C2` [compound 2], the IC50 falls from 19 nM to under 1 nM.

Going from `O=C(NC1C2CC3CC1CC(O)(C3)C2)N1C2CCC1CC(Oc1ncccc1C1CC1)C2` (centres unmarked) [Example 326] to `O=C(NC1C2CC3CC1CC(O)(C3)C2)N1C2CCC1CC(Oc1ncccc1C(F)F)C2` (centres unmarked) [Example 336], the IC50 rises from under 3 nM to 8.4 nM. The first is the more potent here.

Going from `O=C(NC1C2CC3CC1CC(O)(C3)C2)N1C2CCC1CC(Oc1cc(OC(F)F)ccn1)C2` (centres unmarked) [Example 339] to `O=C(NC1C2CC3CC1CC(O)(C3)C2)N1C2CCC1CC(Oc1cc(OCC(F)(F)F)ccn1)C2` (centres unmarked) [Example 373], the IC50 rises from under 3 nM to 17 nM.

`O=C(NC1C2CC3CC1CC(O)(C3)C2)N1C2CCC1CC(Oc1ccc3c(c1)OC(F)(F)O3)C2` (centres unmarked) [Example 378] and `O=C1CCc2ccc(OC3CC4CCC(C3)N4C(=O)NC3C4CC5CC3CC(O)(C5)C4)cc21` (centres unmarked) [Example 390] are within 1.5-fold of each other in IC50: 14 nM for the first, 11 nM for the second.

`O=C(NC1C2CC3CC1CC(O)(C3)C2)N1C2CCC1CC(Oc1cc(F)c(F)c(F)c1)C2` (centres unmarked) [Example 383] and `O=C(NC1C2CC3CC1CC(O)(C3)C2)N1C2CCC1CC(Oc1ccc(F)cn1)C2` (centres unmarked) [Example 409] cannot be ordered by IC50: under 3 nM for the first, under 3 nM for the second.

`O=C(NC1C2CC3CC1CC(O)(C3)C2)N1C2CCC1CC(Oc1ccc(F)cn1)C2` (centres unmarked) [Example 413] and `COc1cccc(OC2CC3CCC(C2)N3C(=O)NC2C3CC4CC2CC(O)(C4)C3)c1Cl` (centres unmarked) [compound 192] cannot be ordered by IC50: under 3 nM for the first, under 3 nM for the second.

Going from `O=C(NC1C2CC3CC1CC(O)(C3)C2)N1C2CCC1CC(OC1CCN(c3ccc(F)cn3)CC1)C2` (centres unmarked) [Example 427] to `Cc1ccnc(C2CC3CCC(C2)N3C(=O)NC2C3CC4CC2CC(O)(C4)C3)c1` (centres unmarked) [compound 241], the IC50 falls from 15 nM to under 3 nM.

target: T2, cortisone reductase of mouse adipose cell (11βHSD1) (Mus musculus, UniProt P50172); experiment: Inhibitory activity assay against cortisone reductase of mouse primary adipocytes; assay type: cell-based; details: differentiated ICR mouse visceral fat primary adipocytes, 100 nM [1,2-3H] cortisone, 37° C.
T2 construct: The medium of adipocytes which were differentiated and induced as mentioned above were replaced; endogenous in cells; host or cells: primary cells from visceral fat tissue of ICR male mice (Japan SLC), differentiated into adipocytes in culture
Procedure: The adipose tissues adhered to the mesenterium and around the testicle of ten ICR male mice (9 to 11 weeks old, Japn SLC Inc.) (hereinafter, referred to as visceral fat tissue) were soaked in about 100 mL of a phospate buffer (0.20 g/L KCl, 0.20 g/L KH2PO4, 8.00 g/L NaCl, 2.16 g/L Na2HPO4.7H2O, 100 unit/ml penicillin (GIBCO), 100 μg/ml streptomycin (GIBCO), 250 ng/ml amphotericin (GIBCO)) and washed at room temperature.
The excised visceral fat tissues was cut finely in about 5×5 mm with scissors in Dulbecco's modified Eagle medium (about 50 ml, containing 4.5 g/L D-glucose and 584 mg/L L-glutamine, GIBCO) to which collagenase (Type II, Sigma), penicillin (GIBCO), streptomycin (GIBCO) and amphotericin (GIBCO) were added in an amount so that the final concentrations thereof are adjusted to 1 mg/ml, 100 unit/ml, 100 μg/ml and 250 ng/ml, respectively. Then, the mixture was shaken at 37° C. for 30 minutes (about 170 rpm), filtered through nylon mesh (80S [the pore size: 250 μm], SANSHIN INDUSTRIAL CO., LTD.), and the filtrate (cell suspension) was collected. This filtrate was centrifuged at 1800 rpm at room temperature for 5 minutes, and then, the liquid layer was removed stilly by decantation to give a precipate. This precipiate was suspended in Dulbecco's modified Eagle medium (30 ml, containing 4.5 g/L D-glucose and 584 mg/L L-glutamine, GIBCO; hereinafter, occasionally referred to as FBS-containing medium), to which fetal bovine serum (hereinafter referred to as FBS, GIBCO), ascorbic acid (Wako Pure Chemical Industries, Ltd.), penicillin (GIBCO), streptomycin (GIBCO) and amphotericin (GIBCO) are added thereto in an amount so that the final concentrations thereof were adjusted to 10%, 200 μM, 100 units/ml, 100 μg/ml and 250 ng/ml, respectively, and then the suspension was filtered through a nylon mesh (420S [pore size: 25 μm], SANSHIN INDUSTRIAL CO., LTD.). The filtrate was collected, and centrifuged at 1800 rpm at room temperature for 5 minutes. The liquid layer was removed stilly by decantation, and the precipitate was suspended again in the FBS-containing medium (30 ml). This suspension was treated by the same procedure (centrifugation, removal of liquid layer, suspension in FBS-containing medium) two times more, and the suspension (90 ml) was prepared. This suspension was put into cell culture flasks (T150, for adhered cell culture, Iwaki Glass) in a each volume of 30 ml, and incubated at 37° C. in the presence of 5% CO2. At 5 to 6 hours after starting incubation, the medium was removed, and the wall of the flask was washed with the above-mentioned phosphate buffer (15 ml). The washing liquid was removed, and the washing procedure was repeated again, and the phosphate buffer was removed. To the flask was added FBS-containing medium (30 ml), and the mixture was incubated at 37° C. under the presence of 5% CO2. On Day 1 or Day 2 after the culture started, the medium was removed, and the wall of the flask was washed with the phosphate buffer (15 ml) once. To the flask was added a trypsin-ethylenediamine tetraacetate (hereinafter, referred to as trypsin-EDTA) solution (0.05% trypsin, 0.53 mM EDTA 4Na, GIBCO) in such a volume that the cells are duly soaked, and the mixture was allowed to stand at 37° C. for 5 minutes. To this mixture was added the FBS-containing medium in about 10-times volume of that of the trypsin-EDTA solution, and then the cell suspension was obtained.
The cells in the cell suspension were counted with a counting chamber, and the cell suspension was diluted with the FBS-containing medium so that the concentration of the cell was adjusted to 1.4×10^5 cells/ml. Thus obtained cell dilution was put into a 48-well plate (for adherent cell culture, Iwaki Glass) in an amount of 300 μl per well, and the plate was incubated at 37° C. in the presence of 5% CO2 for 1 to 2 days. […]

T2 sequence (P50172 whole entry): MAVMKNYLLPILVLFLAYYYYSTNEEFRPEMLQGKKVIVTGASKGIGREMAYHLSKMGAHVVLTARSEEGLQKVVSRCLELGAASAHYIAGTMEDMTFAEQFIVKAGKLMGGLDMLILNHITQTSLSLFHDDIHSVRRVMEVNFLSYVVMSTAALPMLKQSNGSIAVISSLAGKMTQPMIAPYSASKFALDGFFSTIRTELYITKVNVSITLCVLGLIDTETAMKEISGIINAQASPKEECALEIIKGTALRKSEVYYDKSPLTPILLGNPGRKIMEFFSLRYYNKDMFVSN

First: O=C(NC1C2CC3CC1CC(O)(C3)C2)N1C2CCC1CC(Oc1cc(C(F)(F)F)ccn1)C2 (centres unmarked) [Example 307]
Second: CC(C)c1ccnc(OC2CC3CCC(C2)N3C(=O)NC2C3CC4CC2CC(O)(C4)C3)c1 (centres unmarked) [Example 309]
The IC50 of the first is lower: under 1 nM for the first, 4.1 nM for the second.

First: O=C(NC1C2CC3CC1CC(O)(C3)C2)N1C2CCC1CC(Oc1cccc(Cl)n1)C2 (centres unmarked) [Example 311]
Second: O=C(NC1C2CC3CC1CC(O)(C3)C2)N1C2CCC1CC(Oc1ncccc1F)C2 (centres unmarked) [Example 400]
The IC50 of the first is higher: 8.8 nM for the first, under 3 nM for the second. The second is the more potent here.

Compared with `CN(c1ccccc1)C1CC2CCC(C1)N2C(=O)NC1C2CC3CC1CC(O)(C3)C2` (stereo not drawn) [Example 316, (3-Endo)-N-[(E)-5-hydroxyadamantan-2-yl]-3-[methyl(phenyl)amino]-8-azabicyclo-[3.2.1]octane-8-carboxamide], `O=C(NC1C2CC3CC1CC(O)(C3)C2)N1C2CCC1CC(N1Cc3ccccc3C1)C2` (centres unmarked) [Example 431] is 1.5-fold higher in IC50: 18 nM for the first, 27 nM for the second. The first is the more potent here.

First: CCc1cccnc1OC1CC2CCC(C1)N2C(=O)NC1C2CC3CC1CC(O)(C3)C2 (centres unmarked) [Example 324]
Second: Cc1cccnc1OC1CC2CCC(C1)N2C(=O)NC1C2CC3CC1CC(O)(C3)C2 (centres unmarked) [Example 407]
The IC50 of the first is lower: under 3 nM for the first, 4.1 nM for the second. The first is the more potent here.

Compared with `O=C(NC1C2CC3CC1CC(O)(C3)C2)N1C2CCC1CC(Oc1ncc(C(F)F)cc1Cl)C2` (centres unmarked) [Example 342], `CC(=O)c1cccnc1OC1CC2CCC(C1)N2C(=O)NC1C2CC3CC1CC(O)(C3)C2` (centres unmarked) [Example 353] is higher in IC50: under 3 nM for the first, 7.9 nM for the second. The first is the more potent here.

Compared with `COCc1cccc(OC2CC3CCC(C2)N3C(=O)NC2C3CC4CC2CC(O)(C4)C3)c1F` (centres unmarked) [Example 364], `O=C(NC1C2CC3CC1CC(O)(C3)C2)N1C2CCC1CC(Oc1cccc(COCC(F)(F)F)c1)C2` (centres unmarked) [Example 367] is lower in IC50: 7.7 nM for the first, under 3 nM for the second.

Molecule `Cc1cccc(N2CCC(OC3CC4CCC(C3)N4C(=O)NC3C4CC5CC3CC(O)(C5)C4)CC2)c1` (centres unmarked) [Example 423] has an IC50 of under 3 nM.
